# From patent publication US20220071952A1, “METHODS OF TREATING AND PREVENTING HEPATOTOXICITY” (Natreon, Inc., priority 2020, published 2022)
# Several values for one entry are separate records, joined by “and”; a condition that tells them apart may be missing. Equal values may be shown once.
# Assays:
# [1] = Body weight, food intake and water intake during alcohol-induced hepatotoxicity study (Example III); format: in vivo, Swiss Albino mice; conditions: for change in body weight / change in food intake / change in water intake: 10 mg/kg p.o. + alcohol, 15 days; for body weight / food intake / water intake: 10 mg/kg p.o. + alcohol 5 g/kg p.o. twice daily, mean ± SD
# Protocol: Swiss Albino male and female mice weighing approximately 30±5 g, 2 month old mice were obtained from National Research Institute of Ayurveda for Drug Development (Govt. of India), Kolkata, and were housed in polypropylene cages at 22±3° C., relative air humidity of 45 to 55%, with 12.00 hr light & dark cycle (lighting on from 6:00 AM to 6:00 PM). Mice were provided a standard pellet chow diet (carbohydrate 65.5%, protein 17.6%, fat 6.6%) and distilled water ad libitum. The mice were acclimatized for one week in the laboratory conditions, before being used in the experiment. All experiments were conducted between 10.00 hr and 14.00 hr. Principles of laboratory animals care (NIH publication no. 85-23, revised 1985) were followed.
# Vehicle control animals (“Con Veh”) were administered 0.3% CMC orally for 15 days.
# Animals receiving ethanol (“Alc+0.3 CMC”, “3-OH-DBP+Alc”, “3,8-(OH)2-DBP+Alc”) were administered ethanol in 0.3% CMC orally as discussed above.
# Results were expressed in terms of mean±SD (n=8). The data were subjected to one way ANOVA followed by Tukey's test using GraphPad Prism 4.0 software to establish statistical significance (*p<0.05, **p<0.01, ***p<0.001 vs. vehicle control; # p<0.05, ## p<0.01, ### p<0.001 vs. animals administered ethanol only).
# [2] = system: CCl4-induced hepatotoxicity in mice; assay: Carbon tetrachloride (CCl4)-induced hepatotoxicity in mice, serum biochemical parameters (Example II); format: in vivo, Swiss albino mice; conditions: for ALT / AST / MDA / Total Bilirubin / Total Protein: 10 mg/kg p.o. 7 days + CCl4 (30%) 1 ml/kg i.p., serum, mean ± SD, n=6
# Protocol: Swiss albino mice of both sexes, weighing approximately 25-30 g, were obtained from National Research Institute of Ayurveda for Drug Development (Govt. of India), Kolkata, and were housed in polypropylene cages at 22±3° C., relative air humidity of 45 to 55%, with 12.00 hr light and dark cycle (lighting on from 6:00 AM to 6:00 PM) and were provided standard pellet chow (carbohydrate 65.5%, protein 17.6%, fat 6.6%) and distilled water ad libitum. The mice were acclimatized for one week in the laboratory conditions before being used in the experiment. All experiments were conducted between 10.00 hr and 14.00 hr. Principles of laboratory animals care (NIH publication no. 85-23, revised 1985) were followed.
# [3] = system: CCl4-induced hepatotoxicity in mice; assay: Synergistic hepatoprotective activity of DBPs against CCl4-induced hepatotoxicity (Example IV); conditions: for ACP / ALP / ALT / AST / Total Protein: CCl4 1 ml/kg, mean ± SEM, n=4
# [4] = system: paracetamol-induced hepatotoxicity in mice; assay: Synergistic hepatoprotective activity of DBPs against paracetamol-induced hepatotoxicity (Example IV); format: in vivo; conditions: for ACP / ALP / ALT / AST / Total Protein: paracetamol 200 mg/kg, mean ± SEM, n=4
# [5] = female mice, doses 3-OH-DBP 2, 3,8-(OH)2-DBP 10, 1:5 combination 12 mg/kg b.w.
# [6] = female mice, doses 3-OH-DBP 10, 3,8-(OH)2-DBP 50, 1:5 combination 60 mg/kg b.w.
# [7] = male mice, doses 3-OH-DBP 2, 3,8-(OH)2-DBP 10, 1:5 combination 12 mg/kg b.w.
# [8] = male mice, doses 3-OH-DBP 10, 3,8-(OH)2-DBP 50, 1:5 combination 60 mg/kg b.w.
structure (smiles),measurement,setting,value
"O=c1oc2cc(O)ccc2c2ccccc12 [3-OH-DBP, 3-hydroxy-dibenzo-alpha-pyrone]",change in body weight,[1]; female mice,No significant change
same,change in food intake,[1]; female mice,No significant change
same,change in water intake,[1]; female mice,No significant change
same,body weight,"[1]; female mice, Day 0",26.83 ± 1.60 gm
same,food intake,"[1]; female mice, Day 0",8.14 ± 1.67 gm
same,water intake,"[1]; female mice, Day 0",4.16 ± 0.60 mL
same,body weight,"[1]; female mice, Day 5",25.5 ± 1.22 gm
same,water intake,"[1]; female mice, Day 5",4.32 ± 0.28 mL
same,body weight,"[1]; female mice, Day 10",24.33 ± 1.97 gm
same,food intake,"[1]; female mice, Day 10",16.38 ± 1.18 gm
same,water intake,"[1]; female mice, Day 10",1.85 ± 0.30 mL
same,body weight,"[1]; female mice, Day 15",25.17 ± 0.75 gm
same,food intake,"[1]; female mice, Day 15",15.88 ± 0.76 gm
same,water intake,"[1]; female mice, Day 15",1.84 ± 0.18 mL
same,change in body weight,[1]; male mice,No significant change
same,change in food intake,[1]; male mice,No significant change
same,change in water intake,[1]; male mice,No significant change
same,body weight,"[1]; male mice, Day 0",24.33 ± 2.25 gm
same,food intake,"[1]; male mice, Day 0",14.02 ± 0.06 gm
same,water intake,"[1]; male mice, Day 0",2.05 ± 0.23 mL
same,body weight,"[1]; male mice, Day 5",24 ± 1.55 gm
same,food intake,"[1]; male mice, Day 5",14.18 ± 0.72 gm
same,water intake,"[1]; male mice, Day 5",2 ± 0.27 mL
same,body weight,"[1]; male mice, Day 10",25.5 ± 1.05 gm
same,food intake,"[1]; male mice, Day 10",14.51 ± 0.77 gm
same,water intake,"[1]; male mice, Day 10",1.93 ± 0.23 mL
same,body weight,"[1]; male mice, Day 15",25.3 ± 0.52 gm
same,food intake,"[1]; male mice, Day 15",14.45 ± 0.78 gm
same,water intake,"[1]; male mice, Day 15",1.98 ± 0.25 mL
same,"effect on CCl4-induced hepatotoxicity (ALT, AST, bilirubin, total protein vs CCl4 group)","[2]; 10 mg/kg p.o., mice",significantly attenuated and reversed the CCl4-induced hepatotoxicity
same,effect on CCl4-induced lipid peroxidation (MDA),"[2]; 10 mg/kg p.o., mice",significantly lowered CCl4-induced lipid peroxidation
same,ALT,[2]; female mice,67.34 ± 12.07 IU/L
same,AST,[2]; female mice,17.48 ± 5.67 IU/L
same,MDA,[2]; female mice,8.13 ± 0.167 nmol/mL
same,Total Bilirubin,[2]; female mice,0.53 ± 0.21 mg/dL
same,Total Protein,[2]; female mice,3.92 ± 0.88 g/dL
same,ALT,[2]; male mice,58.21 ± 6.79 IU/L
same,AST,[2]; male mice,12.33 ± 3.29 IU/L
same,Total Bilirubin,[2]; male mice,0.50 ± 0.23 mg/dL
same,Total Protein,[2]; male mice,0.00355 ± 0.00031 g/dL
same,MDA,"[2]; male mice, 10 mg/kg",7.04 nmol/mL and 7.04 ± 0.09 nmol/mL
same,hepatoprotective activity against carbon tetrachloride-induced liver damage,"[2]; males and females, 10 mg/kg p.o.",significant hepatoprotective activity
same,"hepatoprotective activity (conclusion, Tables 19 and 20)","[3]; CCl4-induced hepatotoxicity, male and female mice",hepatoprotective activity in a dose dependent manner
same,ACP,[3]; [5],48 ± 5.6 (b) U/L
same,ALP,[3]; [5],75 ± 13 (b) IU/L
same,ALT,[3]; [5],81 ± 7 (b) IU/L
same,AST,[3]; [5],90 ± 4.2 (b) IU/L
same,Total Protein,[3]; [5],4.7 ± 0.59 g/dL
same,ACP,[3]; [6],55 ± 4.1 (e) U/L
same,ALP,[3]; [6],78 ± 6.9 (e) IU/L
same,ALT,[3]; [6],75 ± 7.6*(e) IU/L
same,AST,[3]; [6],69 ± 4.9 (e) IU/L
same,Total Protein,[3]; [6],7.2 ± 0.23 g/dL
same,"ACP, difference in values from CCl4 treated mice",[3]; [5],A = (a-b = 32) U/L
same,"ALP, difference in values from CCl4 treated mice",[3]; [5],A = (a-b = 15) IU/L
same,"ALT, difference in values from CCl4 treated mice",[3]; [5],A = (a-b = 6) IU/L
same,"AST, difference in values from CCl4 treated mice",[3]; [5],A = (a-b = 15) IU/L
same,"ACP, difference in values from CCl4 treated mice",[3]; [6],D = (a-e = 26) U/L
same,"ALP, difference in values from CCl4 treated mice",[3]; [6],D = (a-e = 12) IU/L
same,"ALT, difference in values from CCl4 treated mice",[3]; [6],D = (a-e = 12) IU/L
same,"AST, difference in values from CCl4 treated mice",[3]; [6],D = (a-e = 36) IU/L
same,ACP,[3]; [7],"49 ± 3.6***,#( b) U/L"
same,ALP,[3]; [7],79 ± 12#(b) IU/L
same,ALT,[3]; [7],72 ± 3.4**(b) IU/L
same,AST,[3]; [7],70 ± 4##(b) IU/L
same,Total Protein,[3]; [7],5.6 ± 0.37 g/dL
same,ACP,[3]; [8],47 ± 2.6 (e) U/L
same,ALP,[3]; [8],78 ± 6.9#(e) IU/L
same,ALT,[3]; [8],67 ± 3.6 (e) IU/L
same,AST,[3]; [8],69 ± 2.7 (e) IU/L
same,Total Protein,[3]; [8],6.3 ± 0.46 g/dL
same,"ACP, difference in values from CCl4 treated mice",[3]; [7],A = (a-b = 37) U/L
same,"ALP, difference in values from CCl4 treated mice",[3]; [7],A = (a-b = 63) IU/L
same,"ALT, difference in values from CCl4 treated mice",[3]; [7],A = (a-b = 8) IU/L
same,"AST, difference in values from CCl4 treated mice",[3]; [7],A = (a-b = 33) IU/L
same,"ACP, difference in values from CCl4 treated mice",[3]; [8],D = (a-e = 39) U/L
same,"ALP, difference in values from CCl4 treated mice",[3]; [8],D = (a-e = 64) IU/L
same,"ALT, difference in values from CCl4 treated mice",[3]; [8],D = (a-e = 13) IU/L
same,"AST, difference in values from CCl4 treated mice",[3]; [8],D = (a-e = 34) IU/L
same,"ACP, difference in values from paracetamol treated mice",[4]; [5],A = (a-b = 4) U/L
same,"ALP, difference in values from paracetamol treated mice",[4]; [5],A = (a-b = 21) IU/L
same,"ALT, difference in values from paracetamol treated mice",[4]; [5],A = (a-b = 15) IU/L
same,"AST, difference in values from paracetamol treated mice",[4]; [5],A = (a-b = 45) IU/L
same,"ACP, difference in values from paracetamol treated mice",[4]; [6],D = (a-e = 7.6) U/L
same,"ALP, difference in values from paracetamol treated mice",[4]; [6],D = (a-e = 26) IU/L
same,"ALT, difference in values from paracetamol treated mice",[4]; [6],D = (a-e = 36) IU/L
same,"AST, difference in values from paracetamol treated mice",[4]; [6],D = (a-e = 71) IU/L
same,ACP,[4]; [5],12 ± 0.71***(b) U/L
same,ALP,[4]; [5],77 ± 11***(b) IU/L
same,ALT,[4]; [5],71 ± 9**(b) ^ IU/L
same,AST,[4]; [5],98 ± 10**(b) IU/L
same,Total Protein,[4]; [5],6.2 ± 0.16 g/dL
same,ACP,[4]; [6],8.4 ± 1.2^#(e) ^ U/L
same,ALP,[4]; [6],72 ± 6.9**(e) IU/L
same,ALT,[4]; [6],"50 ± 9.8*,^#(e) IU/L"
same,AST,[4]; [6],"72 ± 6*,^#(e)^ IU/L"
same,Total Protein,[4]; [6],6.2 ± 0.02 g/dL
same,Relative liver weight,"[4]; male and female mice, paracetamol study of Example IV",significantly (p<0.01) increased
same,"ACP, difference in values from paracetamol treated mice",[4]; [7],A = (a-b = 8.5) U/L
same,"ALP, difference in values from paracetamol treated mice",[4]; [7],A = (a-b = 38.33) IU/L
same,"ALT, difference in values from paracetamol treated mice",[4]; [7],A = (a-b = 7.29) IU/L
same,"AST, difference in values from paracetamol treated mice",[4]; [7],A = (a-b = 30.67) IU/L
same,"ACP, difference in values from paracetamol treated mice",[4]; [8],D = (a-e = 5.44) U/L
same,"ALP, difference in values from paracetamol treated mice",[4]; [8],D = (a-e = 43.75) IU/L
same,"ALT, difference in values from paracetamol treated mice",[4]; [8],D = (a-e = 16.14) IU/L
same,"AST, difference in values from paracetamol treated mice",[4]; [8],D = (a-e = 31.7) IU/L
same,ACP,[4]; [7],"9.69 ± 0.32**,^##(b) U/L"
same,ALP,[4]; [7],"90.17 ± 4.16***,^#(b) IU/L"
same,ALT,[4]; [7],60.34 ± 4.78 (b) IU/L
same,AST,[4]; [7],71.38 ± 4.63^#(b)^ IU/L
same,Total Protein,[4]; [7],7.28 ± 0.14 g/dL
same,ACP,[4]; [8],12.75 ± 1.43 (e) U/L
same,ALP,[4]; [8],"84.75 ± 5.32*,^#(e)^ IU/L"
same,ALT,[4]; [8],51.49 ± 4.49 (e)^ IU/L
same,AST,[4]; [8],70.35 ± 6.21(e)^ IU/L
same,Total Protein,[4]; [8],7.34 ± 0.15 g/dL
same,"hepatoprotective activity (conclusion, Tables 15 and 16)","[4]; paracetamol-induced hepatotoxicity, male and female mice",hepatoprotective activity in a dose dependent manner
